Test results taken from paper PMC10913730, “Antimicrobial activity of a natural compound and analogs against multi-drug-resistant Gram-positive pathogens” (Microbiology Spectrum, 2024).
Read-outs that look alike come from different tables or passages of the source.

Tests used:
[1] = tested on: human bronchial epithelial (16HBE) cells; assay: alamarBlue cell viability assay, 16HBE; details: 24-hour incubation, non-linear regression
[2] = tested on: human dermal fibroblast (HDF) cells; assay: alamarBlue cell viability assay, HDF; details: HDFs, 24-hour incubation, non-linear regression
[3] = Aqueous solubility of compounds reconstituted at 10 mg/mL in water; details: 10 mg/mL in distilled deionized water
[4] = tested on: MRSA isolates; assay: MIC/MBC, CLSI broth microdilution, MRSA isolates; assay type: cell-based, Staphylococcus aureus
[5] = pH and Ka of 10-g/L aqueous solutions (pH meter); assay type: physicochemical; details: 10-g/L solution in distilled, deionized water
[6] = tested on: erythrocytes (sheep blood); assay: Hemolytic activity against sheep erythrocytes
[7] = Staphylococcus aureus, MRSA, pH 5.5, MRSA 0606, pH 5.5
[8] = Staphylococcus aureus, MRSA, pH 5.5, MRSA 0608, pH 5.5
[9] = Staphylococcus aureus, MRSA, pH 5.5, MRSA 0634, pH 5.5
[10] = Staphylococcus aureus, MRSA, pH 5.5, MRSA 0641, pH 5.5
[11] = Staphylococcus aureus, MRSA, pH 5.5, MRSA 0646, pH 5.5
[12] = Staphylococcus aureus, MRSA, pH 5.5, TCH 1516, pH 5.5
[13] = Staphylococcus aureus, MRSA, pH 6.5, MRSA 0606, pH 6.5
[14] = Staphylococcus aureus, MRSA, pH 6.5, MRSA 0608, pH 6.5
[15] = Staphylococcus aureus, MRSA, pH 6.5, MRSA 0634, pH 6.5
[16] = Staphylococcus aureus, MRSA, pH 6.5, MRSA 0641, pH 6.5
[17] = Staphylococcus aureus, MRSA, pH 6.5, MRSA 0646, pH 6.5
[18] = Staphylococcus aureus, MRSA, pH 6.5, TCH 1516, pH 6.5
[19] = Staphylococcus aureus, MRSA, pH 7.4, MRSA 0606, pH 7.4
[20] = Staphylococcus aureus, MRSA, pH 7.4, MRSA 0608, pH 7.4
[21] = Staphylococcus aureus, MRSA, pH 7.4, MRSA 0634, pH 7.4
[22] = Staphylococcus aureus, MRSA, pH 7.4, MRSA 0641, pH 7.4
[23] = Staphylococcus aureus, MRSA, pH 7.4, MRSA 0646, pH 7.4
[24] = Staphylococcus aureus, MRSA, pH 7.4, TCH 1516, pH 7.4

SMILES: [Na+].[Na+].[O-]c1c(Cl)cc(Cl)cc1-c1cc(Cl)cc(Cl)c1[O-] [C59Na]
- LD50 [1]: 30.0 µg/mL
- LD50 [2]: 57.5 µg/mL
- aqueous solubility [3]: moderate aqueous solubility
- MIC90 ([4]; Staphylococcus aureus, MRSA, 39 evaluated MRSA isolates, CLSI broth microdilution): 4 µg/mL
- MBC [4, 7]: 0.25 µg/mL
- MIC [4, 7]: 0.25 µg/mL
- MBC [4, 8]: 0.25 µg/mL
- MIC [4, 8]: 0.25 µg/mL
- MBC [4, 9]: 0.25 µg/mL
- MIC [4, 9]: 0.25 µg/mL
- MBC [4, 10]: 0.25 µg/mL
- MIC [4, 10]: 0.25 µg/mL
- MBC [4, 11]: 0.25 µg/mL
- MIC [4, 11]: 0.25 µg/mL
- MBC [4, 12]: 0.25 µg/mL
- MIC [4, 12]: 0.25 µg/mL
- MBC ([4]; Staphylococcus aureus, MRSA, pH 5.5, read-out: Average MBC, average of six MRSA isolates, pH 5.5): 0.25 µg/mL
- MIC ([4]; Staphylococcus aureus, MRSA, pH 5.5, read-out: Average MIC, average of six MRSA isolates, pH 5.5): 0.25 µg/mL
- MBC [4, 13]: 1 µg/mL
- MIC [4, 13]: 0.5 µg/mL
- MBC [4, 14]: 1 µg/mL
- MIC [4, 14]: 1 µg/mL
- MBC [4, 15]: 1 µg/mL
- MIC [4, 15]: 1 µg/mL
- MBC [4, 16]: 1 µg/mL
- MIC [4, 16]: 0.5 µg/mL
- MBC [4, 17]: 1 µg/mL
- MIC [4, 17]: 0.5 µg/mL
- MBC [4, 18]: 2 µg/mL
- MIC [4, 18]: 1 µg/mL
- MBC ([4]; Staphylococcus aureus, MRSA, pH 6.5, read-out: Average MBC, average of six MRSA isolates, pH 6.5): 1.2 µg/mL
- MIC ([4]; Staphylococcus aureus, MRSA, pH 6.5, read-out: Average MIC, average of six MRSA isolates, pH 6.5): 0.75 µg/mL
- MBC [4, 19]: 2 µg/mL
- MIC [4, 19]: 2 µg/mL
- MBC [4, 20]: 4 µg/mL
- MIC [4, 20]: 2 µg/mL
- MBC [4, 21]: 2 µg/mL
- MIC [4, 21]: 2 µg/mL
- MBC [4, 22]: 4 µg/mL
- MIC [4, 22]: 2 µg/mL
- MBC [4, 23]: 4 µg/mL
- MIC [4, 23]: 1 µg/mL
- MBC [4, 24]: 2 µg/mL
- MIC [4, 24]: 2 µg/mL
- MBC ([4]; Staphylococcus aureus, MRSA, pH 7.4, read-out: Average MBC, average of six MRSA isolates, pH 7.4): 3 µg/mL
- MIC ([4]; Staphylococcus aureus, MRSA, pH 7.4, read-out: Average MIC, average of six MRSA isolates, pH 7.4): 1.8 µg/mL
- MBC ([4]; Staphylococcus aureus, MRSA, read-out: MBC90, 39 evaluated MRSA isolates, CLSI broth microdilution): 12 µg/mL
- change of MIC and MBC with the reduction in pH ([4]; six MRSA isolates, pH lowered to 5.5): decreased
- acid dissociation constant (Ka) [5]: 1.54 × 10^−16
- pH of solution ([5]; room temperature): 8.69
- concentrations at which erythrocytes were not lysed ([6]; 1% sheep blood, 1-hour incubation): up to 24 µg/mL
- LD50 relative to MIC90 ([6]; higher than MIC90, stated in the hemolysis discussion, cell type not named): 10 fold
